Reference: ChEMBL document CHEMBL1145498, “A systematic interaction map of validated kinase inhibitors with Ser/Thr kinases” (Proc Natl Acad Sci U S A, 2007)

What was measured:
[1] = target: Calcium/calmodulin-dependent protein kinase type 1D (Homo sapiens) (UniProt Q8IU85)
[2] = target: Calcium/calmodulin-dependent protein kinase type 1G (Homo sapiens) (UniProt Q96NX5)
[3] = target: Calcium/calmodulin-dependent protein kinase type II subunit delta (Homo sapiens) (UniProt Q13557)
[4] = target: Calcium/calmodulin-dependent protein kinase type II subunit gamma (Homo sapiens) (UniProt Q13555)
[5] = target: Calcium/calmodulin-dependent protein kinase kinase 2 (Homo sapiens, UniProt Q96RR4)
Sequence of Calcium/calmodulin-dependent protein kinase kinase 2 (Q96RR4 2-588 limits assumed): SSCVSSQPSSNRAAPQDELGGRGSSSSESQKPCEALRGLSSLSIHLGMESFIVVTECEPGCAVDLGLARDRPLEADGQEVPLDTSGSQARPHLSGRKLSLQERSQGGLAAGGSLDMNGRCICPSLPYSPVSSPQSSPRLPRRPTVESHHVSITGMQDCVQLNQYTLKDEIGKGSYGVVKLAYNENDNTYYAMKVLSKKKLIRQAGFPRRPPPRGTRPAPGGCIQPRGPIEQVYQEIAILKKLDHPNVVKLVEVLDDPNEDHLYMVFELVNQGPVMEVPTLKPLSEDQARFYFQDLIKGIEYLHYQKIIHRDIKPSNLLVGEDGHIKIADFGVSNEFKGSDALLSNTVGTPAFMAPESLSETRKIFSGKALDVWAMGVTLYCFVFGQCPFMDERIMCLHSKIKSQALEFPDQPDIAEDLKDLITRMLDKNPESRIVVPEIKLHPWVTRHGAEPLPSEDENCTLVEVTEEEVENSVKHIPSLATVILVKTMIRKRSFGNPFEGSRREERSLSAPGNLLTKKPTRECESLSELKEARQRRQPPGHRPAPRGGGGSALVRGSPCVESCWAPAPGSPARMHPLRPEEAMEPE

[6] = target: Glycogen synthase kinase-3 beta (Homo sapiens, UniProt P49841)
Sequence of Glycogen synthase kinase-3 beta (P49841 whole entry, looked up): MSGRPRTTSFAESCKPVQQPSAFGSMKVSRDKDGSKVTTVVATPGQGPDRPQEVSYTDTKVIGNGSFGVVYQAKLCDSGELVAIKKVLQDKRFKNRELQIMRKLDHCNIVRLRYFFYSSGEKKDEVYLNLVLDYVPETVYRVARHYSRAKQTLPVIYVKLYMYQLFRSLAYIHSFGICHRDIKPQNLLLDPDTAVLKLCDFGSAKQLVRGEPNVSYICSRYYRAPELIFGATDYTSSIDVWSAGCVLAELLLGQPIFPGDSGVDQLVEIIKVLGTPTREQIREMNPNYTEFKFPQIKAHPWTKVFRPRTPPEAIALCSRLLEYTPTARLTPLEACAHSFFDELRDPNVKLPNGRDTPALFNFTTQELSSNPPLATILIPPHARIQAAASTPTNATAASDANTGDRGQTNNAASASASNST

[7] = target: T1, Dual specificity mitogen-activated protein kinase kinase 6 (Homo sapiens) (UniProt P52564)
T1 sequence (whole entry): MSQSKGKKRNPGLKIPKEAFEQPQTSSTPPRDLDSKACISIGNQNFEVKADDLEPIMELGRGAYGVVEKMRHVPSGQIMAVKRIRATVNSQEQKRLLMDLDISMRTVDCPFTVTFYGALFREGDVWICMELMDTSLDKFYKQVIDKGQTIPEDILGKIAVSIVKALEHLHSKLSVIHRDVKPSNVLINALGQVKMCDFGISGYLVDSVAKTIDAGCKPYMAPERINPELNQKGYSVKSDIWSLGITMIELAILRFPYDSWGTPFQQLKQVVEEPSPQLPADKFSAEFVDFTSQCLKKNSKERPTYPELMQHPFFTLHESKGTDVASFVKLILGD

[8] = target: Mitogen-activated protein kinase 11 (Homo sapiens, UniProt Q15759)
[9] = target: Serine/threonine-protein kinase 26 (Homo sapiens) (UniProt Q9P289)
Sequence of Serine/threonine-protein kinase 26 (Homo sapiens) (Q9P289 2-416 limits assumed): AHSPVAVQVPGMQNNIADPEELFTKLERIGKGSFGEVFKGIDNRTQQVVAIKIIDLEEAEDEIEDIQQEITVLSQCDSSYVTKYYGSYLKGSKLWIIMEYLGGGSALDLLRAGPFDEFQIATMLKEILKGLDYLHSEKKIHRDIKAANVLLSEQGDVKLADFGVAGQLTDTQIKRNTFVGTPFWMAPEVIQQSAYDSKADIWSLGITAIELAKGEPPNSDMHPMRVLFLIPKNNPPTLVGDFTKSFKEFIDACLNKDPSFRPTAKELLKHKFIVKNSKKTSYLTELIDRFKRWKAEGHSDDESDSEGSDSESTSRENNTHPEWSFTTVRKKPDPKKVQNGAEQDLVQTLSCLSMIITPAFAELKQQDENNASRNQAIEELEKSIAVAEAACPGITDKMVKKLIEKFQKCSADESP

[10] = target: Serine/threonine-protein kinase OSR1 (Homo sapiens) (UniProt O95747)
Sequence of Serine/threonine-protein kinase OSR1 (Homo sapiens) (O95747 2-527 limits assumed): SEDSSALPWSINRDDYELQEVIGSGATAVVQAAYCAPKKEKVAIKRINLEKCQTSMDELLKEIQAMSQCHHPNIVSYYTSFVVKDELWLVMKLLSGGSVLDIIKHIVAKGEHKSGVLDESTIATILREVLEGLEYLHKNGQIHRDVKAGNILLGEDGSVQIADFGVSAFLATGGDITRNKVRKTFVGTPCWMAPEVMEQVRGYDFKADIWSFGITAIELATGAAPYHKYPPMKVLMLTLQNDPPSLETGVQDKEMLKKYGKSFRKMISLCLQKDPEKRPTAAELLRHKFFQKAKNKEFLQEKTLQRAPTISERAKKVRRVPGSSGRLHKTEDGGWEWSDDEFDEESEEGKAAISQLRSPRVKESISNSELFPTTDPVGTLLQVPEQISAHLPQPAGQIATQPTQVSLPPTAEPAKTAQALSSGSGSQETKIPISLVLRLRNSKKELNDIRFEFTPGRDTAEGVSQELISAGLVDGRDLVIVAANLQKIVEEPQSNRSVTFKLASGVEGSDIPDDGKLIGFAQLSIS

[11] = target: Serine/threonine-protein kinase PAK 5 (Homo sapiens) (UniProt Q9P286)
Sequence of Serine/threonine-protein kinase PAK 5 (Homo sapiens) (Q9P286 whole entry, looked up): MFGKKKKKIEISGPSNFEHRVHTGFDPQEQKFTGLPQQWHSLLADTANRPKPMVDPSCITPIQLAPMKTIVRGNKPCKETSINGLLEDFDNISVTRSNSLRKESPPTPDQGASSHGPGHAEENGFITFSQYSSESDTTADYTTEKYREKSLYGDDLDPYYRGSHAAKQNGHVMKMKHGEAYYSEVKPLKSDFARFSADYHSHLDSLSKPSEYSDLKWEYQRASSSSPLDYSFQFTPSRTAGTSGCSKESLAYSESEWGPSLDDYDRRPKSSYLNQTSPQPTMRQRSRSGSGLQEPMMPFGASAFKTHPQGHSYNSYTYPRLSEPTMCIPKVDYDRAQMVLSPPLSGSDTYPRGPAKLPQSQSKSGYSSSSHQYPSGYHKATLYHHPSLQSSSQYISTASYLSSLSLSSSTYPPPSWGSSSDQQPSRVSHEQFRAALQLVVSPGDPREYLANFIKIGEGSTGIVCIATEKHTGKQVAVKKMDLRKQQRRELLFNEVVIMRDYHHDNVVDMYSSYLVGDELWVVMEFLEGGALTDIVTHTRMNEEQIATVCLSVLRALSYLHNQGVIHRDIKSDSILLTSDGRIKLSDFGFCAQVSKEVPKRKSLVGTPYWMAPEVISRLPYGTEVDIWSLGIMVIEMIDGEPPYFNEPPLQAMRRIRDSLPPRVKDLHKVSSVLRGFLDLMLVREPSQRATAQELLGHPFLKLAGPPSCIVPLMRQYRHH

[12] = target: Serine/threonine-protein kinase PAK 6 (Homo sapiens) (UniProt Q9NQU5)
[13] = target: T2, 3-phosphoinositide-dependent protein kinase 1 (Homo sapiens) (UniProt O15530)
T2 sequence (whole entry): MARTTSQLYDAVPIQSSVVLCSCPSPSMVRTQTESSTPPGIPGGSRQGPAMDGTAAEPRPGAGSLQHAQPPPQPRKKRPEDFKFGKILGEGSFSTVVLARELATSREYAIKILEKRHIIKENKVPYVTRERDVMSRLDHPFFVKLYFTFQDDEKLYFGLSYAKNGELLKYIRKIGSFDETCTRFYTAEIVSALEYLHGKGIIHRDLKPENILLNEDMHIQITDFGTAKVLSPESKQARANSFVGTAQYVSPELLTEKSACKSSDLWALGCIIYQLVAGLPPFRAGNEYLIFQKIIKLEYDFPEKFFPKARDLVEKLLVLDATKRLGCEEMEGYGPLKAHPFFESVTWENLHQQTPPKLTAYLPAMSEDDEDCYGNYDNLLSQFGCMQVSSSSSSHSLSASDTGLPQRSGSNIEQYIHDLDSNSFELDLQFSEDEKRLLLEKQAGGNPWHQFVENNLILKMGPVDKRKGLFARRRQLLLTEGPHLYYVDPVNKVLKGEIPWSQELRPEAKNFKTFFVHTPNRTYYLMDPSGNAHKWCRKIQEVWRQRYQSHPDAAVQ

[14] = target: T3, Serine/threonine-protein kinase PLK4 (Homo sapiens) (UniProt O00444)
T3 sequence (whole entry): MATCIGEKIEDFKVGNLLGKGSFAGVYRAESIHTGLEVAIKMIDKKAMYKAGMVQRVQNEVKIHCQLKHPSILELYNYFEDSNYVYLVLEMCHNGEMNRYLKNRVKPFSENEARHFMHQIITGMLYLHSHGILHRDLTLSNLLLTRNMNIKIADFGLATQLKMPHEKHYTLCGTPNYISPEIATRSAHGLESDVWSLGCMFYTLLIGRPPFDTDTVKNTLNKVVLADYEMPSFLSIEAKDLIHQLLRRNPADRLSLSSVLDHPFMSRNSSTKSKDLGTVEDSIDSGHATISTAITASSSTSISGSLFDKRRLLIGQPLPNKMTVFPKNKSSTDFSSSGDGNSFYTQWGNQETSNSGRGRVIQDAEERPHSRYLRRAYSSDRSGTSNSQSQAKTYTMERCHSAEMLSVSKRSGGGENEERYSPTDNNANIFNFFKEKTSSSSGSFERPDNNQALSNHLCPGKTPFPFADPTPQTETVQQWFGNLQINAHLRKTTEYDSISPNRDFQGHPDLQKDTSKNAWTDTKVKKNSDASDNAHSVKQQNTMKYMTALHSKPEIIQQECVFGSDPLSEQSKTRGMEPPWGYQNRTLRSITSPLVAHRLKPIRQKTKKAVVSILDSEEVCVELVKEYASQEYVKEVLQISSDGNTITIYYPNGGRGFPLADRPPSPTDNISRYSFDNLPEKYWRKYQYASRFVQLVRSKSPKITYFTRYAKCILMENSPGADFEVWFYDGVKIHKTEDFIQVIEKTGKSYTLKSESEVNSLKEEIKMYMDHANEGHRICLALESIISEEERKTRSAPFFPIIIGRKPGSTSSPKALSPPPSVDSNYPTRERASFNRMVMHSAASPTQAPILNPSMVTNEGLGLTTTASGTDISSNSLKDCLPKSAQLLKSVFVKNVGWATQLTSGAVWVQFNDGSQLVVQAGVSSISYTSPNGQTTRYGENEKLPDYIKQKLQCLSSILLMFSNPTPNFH

[15] = target: Serine/threonine-protein kinase RIO2 (Homo sapiens) (UniProt Q9BVS4)
[16] = target: Serine/threonine-protein kinase 38 (Homo sapiens) (UniProt Q15208)
[17] = target: TRAF2 and NCK-interacting protein kinase (Homo sapiens) (UniProt Q9UKE5)
Sequence of TRAF2 and NCK-interacting protein kinase (Homo sapiens) (Q9UKE5 whole entry, looked up): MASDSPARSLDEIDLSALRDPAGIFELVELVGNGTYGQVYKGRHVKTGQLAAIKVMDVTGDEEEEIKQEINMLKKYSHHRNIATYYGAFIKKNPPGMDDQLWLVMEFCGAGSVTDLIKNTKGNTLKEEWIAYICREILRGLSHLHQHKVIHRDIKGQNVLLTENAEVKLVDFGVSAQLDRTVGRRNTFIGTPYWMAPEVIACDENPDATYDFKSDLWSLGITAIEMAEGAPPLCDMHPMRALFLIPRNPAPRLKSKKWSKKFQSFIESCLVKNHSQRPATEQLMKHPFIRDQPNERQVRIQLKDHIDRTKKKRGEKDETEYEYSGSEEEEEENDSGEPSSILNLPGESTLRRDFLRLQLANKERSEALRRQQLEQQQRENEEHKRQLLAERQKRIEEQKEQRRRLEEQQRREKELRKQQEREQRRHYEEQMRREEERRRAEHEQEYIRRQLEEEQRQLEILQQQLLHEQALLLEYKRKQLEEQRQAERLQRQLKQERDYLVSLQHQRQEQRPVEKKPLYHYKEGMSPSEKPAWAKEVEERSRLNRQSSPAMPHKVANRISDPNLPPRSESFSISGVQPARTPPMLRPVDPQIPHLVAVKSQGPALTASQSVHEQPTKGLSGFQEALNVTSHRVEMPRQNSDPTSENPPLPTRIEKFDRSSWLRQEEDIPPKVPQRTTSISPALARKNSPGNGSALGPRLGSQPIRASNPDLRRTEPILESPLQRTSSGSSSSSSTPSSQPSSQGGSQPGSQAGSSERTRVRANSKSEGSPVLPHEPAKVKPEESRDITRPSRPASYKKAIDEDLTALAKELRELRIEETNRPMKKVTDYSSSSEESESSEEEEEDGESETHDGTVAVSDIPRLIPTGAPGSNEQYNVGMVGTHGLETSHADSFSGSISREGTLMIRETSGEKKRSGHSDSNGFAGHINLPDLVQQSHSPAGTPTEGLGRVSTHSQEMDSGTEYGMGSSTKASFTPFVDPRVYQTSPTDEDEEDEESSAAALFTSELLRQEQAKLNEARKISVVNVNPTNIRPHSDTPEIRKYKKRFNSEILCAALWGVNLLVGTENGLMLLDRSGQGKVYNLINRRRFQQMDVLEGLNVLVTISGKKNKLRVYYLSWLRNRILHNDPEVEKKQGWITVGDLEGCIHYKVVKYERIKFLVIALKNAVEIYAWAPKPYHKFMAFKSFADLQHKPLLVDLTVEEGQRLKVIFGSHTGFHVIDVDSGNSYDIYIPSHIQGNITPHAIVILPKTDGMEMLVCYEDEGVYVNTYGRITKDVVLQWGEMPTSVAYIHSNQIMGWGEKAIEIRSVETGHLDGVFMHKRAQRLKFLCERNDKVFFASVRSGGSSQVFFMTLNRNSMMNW

Sequence of Calcium/calmodulin-dependent protein kinase type II subunit delta (Homo sapiens) (Q13557 whole entry): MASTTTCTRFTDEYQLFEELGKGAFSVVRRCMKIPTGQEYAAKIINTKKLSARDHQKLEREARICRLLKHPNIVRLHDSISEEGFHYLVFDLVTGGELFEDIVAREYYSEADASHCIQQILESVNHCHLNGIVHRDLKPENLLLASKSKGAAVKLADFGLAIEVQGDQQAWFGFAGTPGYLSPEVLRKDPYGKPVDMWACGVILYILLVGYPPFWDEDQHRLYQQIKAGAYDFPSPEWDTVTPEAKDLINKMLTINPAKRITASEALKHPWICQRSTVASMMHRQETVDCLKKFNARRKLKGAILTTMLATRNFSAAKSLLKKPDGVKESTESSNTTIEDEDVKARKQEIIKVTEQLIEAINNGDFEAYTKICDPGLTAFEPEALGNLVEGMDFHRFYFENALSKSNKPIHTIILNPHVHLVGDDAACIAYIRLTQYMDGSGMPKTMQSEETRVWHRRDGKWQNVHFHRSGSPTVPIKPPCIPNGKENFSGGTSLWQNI
Sequence of Calcium/calmodulin-dependent protein kinase type 1G (Homo sapiens) (Q96NX5 whole entry): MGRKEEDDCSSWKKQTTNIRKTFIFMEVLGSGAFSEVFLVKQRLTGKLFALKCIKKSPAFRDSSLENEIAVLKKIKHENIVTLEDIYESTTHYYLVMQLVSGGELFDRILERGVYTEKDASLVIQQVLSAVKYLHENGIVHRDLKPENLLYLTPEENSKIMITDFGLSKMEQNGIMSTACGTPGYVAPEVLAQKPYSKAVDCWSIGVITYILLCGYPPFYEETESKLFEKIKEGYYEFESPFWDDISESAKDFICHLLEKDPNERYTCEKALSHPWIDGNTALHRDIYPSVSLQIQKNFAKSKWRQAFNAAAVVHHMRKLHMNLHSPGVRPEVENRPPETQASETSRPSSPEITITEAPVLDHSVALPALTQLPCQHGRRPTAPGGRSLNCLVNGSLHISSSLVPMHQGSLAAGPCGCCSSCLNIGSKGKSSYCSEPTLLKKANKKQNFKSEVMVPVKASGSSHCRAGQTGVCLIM

SMILES: CCOc1cc(/C=C(\C#N)C(N)=O)cc(CSc2ccccc2)c1O
- ΔTm [1]: -0.2 °C
- ΔTm [2]: 0 °C
- ΔTm [3]: -0.2 °C
- ΔTm [4]: -0.1 °C
- ΔTm [5]: -0.1 °C
- ΔTm [6]: 1.1 °C
- ΔTm [7]: 1.6 °C
- ΔTm [8]: -0.3 °C
- ΔTm [9]: -0.3 °C
- ΔTm [10]: 0.9 °C
- ΔTm [11]: 0 °C
- ΔTm [12]: -0.4 °C
- ΔTm [13]: 0 °C
- ΔTm [14]: 2.8 °C
- ΔTm [15]: 0.1 °C
- ΔTm [16]: 0.3 °C
- ΔTm [17]: 0.2 °C

SMILES: Oc1ccc(-c2nc(-c3ccc(F)cc3)c(-c3ccncc3)[nH]2)cc1
- ΔTm [1]: -0.1 °C
- ΔTm [2]: -0.1 °C
- ΔTm [3]: -0.1 °C
- ΔTm [4]: 0.6 °C
- ΔTm [5]: -0.2 °C
- ΔTm [6]: 4.7 °C
- ΔTm [7]: 0.3 °C
- ΔTm [8]: 10.9 °C
- ΔTm [9]: 0 °C
- ΔTm [10]: 0.9 °C
- ΔTm [11]: 0.5 °C
- ΔTm [12]: -0.2 °C
- ΔTm [13]: -1 °C
- ΔTm [14]: 1.1 °C
- ΔTm [15]: -0.3 °C
- ΔTm [16]: 0.7 °C
- ΔTm [17]: 1.9 °C

SMILES: Nc1n[nH]c2nnc(-c3c(-c4ccccc4)nn4ccccc34)cc12
- ΔTm [1]: 0.1 °C
- ΔTm [2]: 0.1 °C
- ΔTm [3]: -0.6 °C
- ΔTm [4]: -0.1 °C
- ΔTm [5]: 0.3 °C
- ΔTm [6]: 5 °C
- ΔTm [7]: 0.2 °C
- ΔTm [8]: 4.5 °C
- ΔTm [9]: 1 °C
- ΔTm [10]: 0.3 °C
- ΔTm [11]: -0.4 °C
- ΔTm [12]: 0.1 °C
- ΔTm [13]: 1 °C
- ΔTm [14]: -0.2 °C
- ΔTm [15]: -0.4 °C
- ΔTm [16]: 1.9 °C
- ΔTm [17]: 1.1 °C

SMILES: O=Nc1c(-c2c(O)[nH]c3ccccc23)[nH]c2ccccc12
- ΔTm [1]: 1.1 °C
- ΔTm [2]: 1.1 °C
- ΔTm [3]: 2.8 °C
- ΔTm [4]: 2.3 °C
- ΔTm [5]: 4.3 °C
- ΔTm [6]: 11.5 °C
- ΔTm [7]: 3.6 °C
- ΔTm [8]: 0.7 °C
- ΔTm [9]: 2.5 °C
- ΔTm [10]: 1.7 °C
- ΔTm [11]: 2.6 °C
- ΔTm [12]: 1.7 °C
- ΔTm [13]: 1.5 °C
- ΔTm [14]: 8.9 °C
- ΔTm [15]: 2.6 °C
- ΔTm [16]: 2.7 °C
- ΔTm [17]: 5.9 °C

SMILES: Cc1nc(Nc2ncc(C(=O)Nc3c(C)cccc3Cl)s2)cc(N2CCN(CCO)CC2)n1
- ΔTm [1]: 0.9 °C
- ΔTm [2]: 0.5 °C
- ΔTm [3]: 0 °C
- ΔTm [4]: -0.3 °C
- ΔTm [5]: 0.6 °C
- ΔTm [6]: 1.9 °C
- ΔTm [7]: 0.5 °C
- ΔTm [8]: 0.4 °C
- ΔTm [9]: -0.4 °C
- ΔTm [10]: 0.4 °C
- ΔTm [11]: -0.6 °C
- ΔTm [12]: 2.1 °C
- ΔTm [13]: 6.8 °C
- ΔTm [14]: 2.5 °C
- ΔTm [15]: 2.3 °C

SMILES: CN[C@@H]1CC2O[C@@](C)([C@@H]1OC)n1c3ccccc3c3c4c(c5c6ccccc6n2c5c31)C(=O)NC4
- ΔTm [3]: 17.1 °C
- ΔTm [4]: 14.6 °C
- ΔTm [5]: 18.6 °C
- ΔTm [7]: 11.6 °C
- ΔTm [8]: 0.5 °C
- ΔTm [9]: 9.3 °C
- ΔTm [10]: 6.9 °C
- ΔTm [11]: 12.4 °C
- ΔTm [12]: 16.8 °C
- ΔTm [13]: -0.7 °C
- ΔTm [14]: 21.2 °C
- ΔTm [15]: 0.5 °C
- ΔTm [16]: 5.7 °C
- ΔTm [17]: 9.4 °C

SMILES: Nc1nccc(-c2c(-c3ccc(F)cc3)ncn2C2CCNCC2)n1
- ΔTm [1]: -0.2 °C
- ΔTm [2]: 0.3 °C
- ΔTm [3]: 0.2 °C
- ΔTm [4]: 0.1 °C
- ΔTm [5]: 0.1 °C
- ΔTm [6]: 0.9 °C
- ΔTm [7]: 0.2 °C
- ΔTm [9]: -1.3 °C
- ΔTm [10]: 0.3 °C
- ΔTm [11]: 0 °C
- ΔTm [12]: -0.5 °C
- ΔTm [13]: -0.2 °C
- ΔTm [14]: 0.2 °C
- ΔTm [15]: 0.2 °C
- ΔTm [16]: 0.3 °C
- ΔTm [17]: -0.9 °C

SMILES: COc1cc2ncnc(Nc3cccc(O)c3)c2cc1OC
- ΔTm [1]: -0.1 °C
- ΔTm [3]: -0.6 °C
- ΔTm [4]: 0.5 °C
- ΔTm [5]: 1.1 °C
- ΔTm [6]: 2.2 °C
- ΔTm [8]: 0.8 °C
- ΔTm [10]: 0.2 °C
- ΔTm [11]: 0.5 °C
- ΔTm [13]: 0 °C
- ΔTm [14]: 3.9 °C
- ΔTm [15]: 3.4 °C
- ΔTm [16]: 0.4 °C
- ΔTm [17]: 0.9 °C

SMILES: CN1CCC(Nc2ncc3ncnc(Nc4ccc(F)c(Cl)c4)c3n2)CC1 [FALNIDAMOL]
- ΔTm [1]: 0.7 °C
- ΔTm [2]: 0.5 °C
- ΔTm [3]: 0.5 °C
- ΔTm [4]: 1.4 °C
- ΔTm [5]: -0.1 °C
- ΔTm [6]: 1.7 °C
- ΔTm [7]: 0.3 °C
- ΔTm [8]: 0 °C
- ΔTm [9]: 6.7 °C
- ΔTm [10]: 1.4 °C
- ΔTm [11]: 2.5 °C
- ΔTm [12]: 2.9 °C
- ΔTm [13]: 0.1 °C
- ΔTm [14]: 0.3 °C
- ΔTm [15]: -0.4 °C

SMILES: Clc1ccc(Nc2nnc(Cc3ccncc3)c3ccccc23)cc1
- ΔTm [1]: 0.6 °C
- ΔTm [2]: 0.5 °C
- ΔTm [3]: -0.4 °C
- ΔTm [4]: -0.4 °C
- ΔTm [5]: 0.5 °C
- ΔTm [6]: 0.3 °C
- ΔTm [7]: 0.4 °C
- ΔTm [8]: 0.5 °C
- ΔTm [9]: -0.6 °C
- ΔTm [10]: 0.8 °C
- ΔTm [11]: -0.7 °C
- ΔTm [12]: 0 °C
- ΔTm [13]: 4 °C
- ΔTm [14]: 0.4 °C
- ΔTm [15]: -0.8 °C

SMILES: CCN(CC)CCNC(=O)c1c(C)[nH]c(/C=C2\C(=O)Nc3ccc(F)cc32)c1C
- ΔTm [3]: 2.3 °C
- ΔTm [4]: 5.2 °C
- ΔTm [5]: 6.8 °C
- ΔTm [6]: 12.1 °C
- ΔTm [7]: 3.9 °C
- ΔTm [8]: 0.1 °C
- ΔTm [9]: 4.7 °C
- ΔTm [10]: 3 °C
- ΔTm [11]: 1.7 °C
- ΔTm [12]: 3.5 °C
- ΔTm [13]: 2.9 °C
- ΔTm [14]: 1.6 °C
- ΔTm [15]: 6 °C
- ΔTm [16]: 5.6 °C
- ΔTm [17]: 0.7 °C

SMILES: Cc1ccc(NC(=O)c2ccc(CN3CCN(C)CC3)cc2)cc1Nc1nccc(-c2cccnc2)n1
- ΔTm [1]: 0.4 °C
- ΔTm [2]: 0.1 °C
- ΔTm [3]: 0.3 °C
- ΔTm [4]: 0.8 °C
- ΔTm [5]: 2.8 °C
- ΔTm [7]: 0.4 °C
- ΔTm [8]: -0.5 °C
- ΔTm [9]: 1 °C
- ΔTm [10]: 0.7 °C
- ΔTm [11]: -0.6 °C
- ΔTm [12]: 4.1 °C
- ΔTm [13]: -0.2 °C
- ΔTm [14]: 0.2 °C
- ΔTm [15]: 1.2 °C
- ΔTm [16]: 0.7 °C
- ΔTm [17]: 0 °C

SMILES: COC(=O)[C@]1(O)C[C@@H]2O[C@@]1(C)n1c3ccccc3c3c4c(c5c6ccccc6n2c5c31)C(=O)NC4 (single isomer, unassigned)
- ΔTm [1]: 4 °C
- ΔTm [2]: 2.2 °C
- ΔTm [3]: 3.5 °C
- ΔTm [4]: 6.5 °C
- ΔTm [5]: 4.2 °C
- ΔTm [6]: 4.5 °C
- ΔTm [8]: 0.7 °C
- ΔTm [9]: 3 °C
- ΔTm [10]: 1.8 °C
- ΔTm [11]: 5.5 °C
- ΔTm [12]: 9.7 °C
- ΔTm [13]: -0.4 °C
- ΔTm [14]: 12.5 °C
- ΔTm [15]: 1.4 °C
- ΔTm [16]: 3.9 °C
- ΔTm [17]: 8.7 °C
